≈ marks a conversion by molar mass, not a printed value. Read-outs that look alike come from different tables or passages of the source.
Experiments:
[1] = tested on: Trichophyton rubrum strains; assay: Example N: MIC and MFC (CLSI) against Trichophyton rubrum; assay type: cell-based; conditions: for MIC: read-out: MIC 100%, Range, incubated for 96 hrs, three clinical strains; for MFC: three clinical strains
Method: (§1) The objective of this study was to determine the antifungal activity of eight experimental compounds against a representative panel of fungal isolates, including Candida albicans, C. glabrata, Cryptococcus neoformans, Trichophyton rubrum, Aspergillus fumigatus, and Rhizopus spp. Antifungal activity was measured by minimum inhibitory concentration (MIC) and minimum fungicidal concentration (MFC).
(§2) Three recent clinical strains of each species, taken from the culture collection at the Center for Medical Mycology, Case Western University, were tested.
(§3) Compounds in powder form were dissolved in DMSO. Serial dilutions of each compound were then prepared in RPMI-1640 in a range of […].
(§4) MIC testing was performed according to the CLSI M27-A3 and M38-A2 standards for the susceptibility testing of yeasts and filamentous fungi, respectively (1, 2). Test isolates were subcultured from frozen slants onto potato dextrose agar plates (Trichophyton rubrum was subcultured onto oatmeal plates for conidia production) and checked for purity. Inocula were then prepared in RPMI-1640 (YNB for Cryptococcus) to a concentration of 0.5-2.5×10^3 colony-forming units (CFU)/ml or 0.4-5×10^4 conidia/ml for yeast and filamentous fungi, respectively.
(§5) MFC determinations were performed according to the modifications previously described by Canton et al. and Ghannoum and Isham. (3, 4) Specifically, the total contents of each clear well from the MIC assay were subcultured onto potato dextrose agar. To avoid antifungal carryover, the aliquots were allowed to soak into the agar and then were streaked for isolation once dry, thus removing the cells from the drug source.

[2] = tested on: PC3 human prostate cancer cells; assay: Example S: in vitro anticancer screen, PC-3 cells, Wst1; assay type: cell-based; conditions: Homo sapiens, PC-3; 0.4 μM, approximately 20 hours, Wst1; read-out: PC-3, percent of cancer cell survival relative to vehicle treated cells
Method in brief: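 PC-3 cells, 2×10^4 cells/well, exposed ~20 h to vehicle or compound at 0.4, 0.5 or 2.5 μM as specified per compound. Wst1 dye added for 2 h; absorbance 450 nm (reference 630 nm), triplicates. Values are percent cell survival versus vehicle-treated cells.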

[3] = tested on: THP-1 cells; assay: Example D: LPS-triggered THP-1 cell death assay, acute/5-hour and chronic/48-hour; assay type: cell-based, Human; conditions: for Viable cell percent change, Chronic/48-hour, Mean: 10 ng/ml LPS, 0.1 μM test compound; for activity relative to AC in the LPS-triggered THP-1 cell death assay, in words: 0.1 μM, 5-hour and 48-hour time points
Method: Compounds of the invention were tested at 0.1 μM versus AC in the LPS-triggered THP-1 cell death assay. Both acute/5-hour and chronic/48-hour phases of cell death were assessed. Compounds were screened in batches with DMSO as the negative control and AC as the high activity control.

[4] = tested on: Trichophyton rubrum; assay: Example J: Trichophyton rubrum growth inhibition, scoring by eye; assay type: cell-based; conditions: Trichophyton rubrum, 144 h; 6 days at 30° C., tested 6 to 40 μM; read-out: MIC, μM (maximum inhibition concentration, scoring by eye)
Method in brief: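 Filtered T. rubrum suspension from PDA plates (grown 4 days, 30 °C) treated with diluted compounds in triplicate, incubated 6 days at 30 °C. Plates imaged; MIC scored by eye.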

[5] = tested on: PC-3 prostate cancer cells; assay: Example T: sensitisation of PC-3 cells to doxorubicin, oxaliplatin, paclitaxel or vincristine, Wst1; assay type: cell-based, human; conditions: PC-3 cells, 72 hours; for viability at 0.4 µM: Homo sapiens, compound 0.4 μM alone, Wst1, vehicle = 100, read-out: No Chemo: percent cell survival; for Doxorubicin 3.5 μM: percent cell survival: compound 0.4 μM + doxorubicin 3.5 μM; for Doxorubicin 3.5 μM: percent cell survival / Oxaliplatin 100 μM: percent cell survival / Paclitaxel 50 μM: percent cell survival / Vincristine 100 nM: percent cell survival: chemotherapy agent alone normalized to 100%; for Oxaliplatin 100 μM: percent cell survival: compound 0.4 μM + oxaliplatin 100 μM; for Paclitaxel 50 μM: percent cell survival: compound 0.4 μM + paclitaxel 50 μM; for Vincristine 100 nM: percent cell survival: compound 0.4 μM + vincristine 100 nM
[6] = tested on: Candida albicans strains; assay: Example N: MIC and MFC (CLSI) against Candida albicans; assay type: cell-based; conditions: Candida albicans, three clinical strains; for MIC: read-out: MIC 100%, Range
Method: as §1, §2, §3, §4, §5

[7] = tested on: Cryptococcus neoformans strains; assay: Example N: MIC and MFC (CLSI) against Cryptococcus neoformans; assay type: cell-based; design: MIC at 50% inhibition: unit not given here; conditions: for cidal activity (MFC within 4 dilutions of the MIC), in words: 3 isolates; for MIC / MFC: Cryptococcus neoformans, three clinical strains; for MIC: read-out: MIC 100%, Range, incubated for 72 hrs
Method: as §1, §2, §3, §4, §5

[8] = tested on: Aspergillus fumigatus strains; assay: Example N: MIC and MFC (CLSI) against Aspergillus fumigatus; assay type: cell-based; conditions: for MIC50 / MIC: Aspergillus fumigatus; for MIC: read-out: MIC 100%; for MFC: range over Aspergillus fumigatus strains, in 48 hr
Method: as §1, §2, §3, §4, §5

[9] = tested on: 4T1 murine breast cancer cells; assay: Example S: in vitro anticancer screen, 4T1 cells, Wst1; assay type: cell-based, mouse; conditions: Mus musculus, 4T1, 18 h, 18 hr, Wst1; for viability at 1 µM: read-out: 4T1 1 μM, percent of cancer cell survival relative to vehicle treated cells; for viability at 5 µM: read-out: 4T1 5 μM, percent of cancer cell survival relative to vehicle treated cells
Method in brief: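 4T1 cells seeded at 1×10^4/well were exposed to compound at 1 μM or 5 μM for 18 hr after plating. Wst1 tetrazolium dye was then added for about 2 hr and absorbance read at 450 nm (reference 630 nm). Values are percent survival relative to vehicle-treated cells.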

[10] = tested on: THP-1 cells; assay: Example C: compound screen, viable THP-1 cell count after 5 hours +/- LPS; assay type: cell-based, Human
Excerpt: Background: THP-1 is a human acute myeloid leukemia (AML) cell line that can be induced into a macrophage-like cell with vitamin-D3 (vit-D3). In the macrophage, LPS (lipopolysaccharide; endotoxin) stimulation of toll-like receptor 4 (TLR-4) leads to NF-κB activation and secretion of inflammatory cytokines but also the priming of programmed death pathways through RIP and Caspase 8. The balance of this complex regulatory network is dependent on highly specific kinases, enzymes that require ATP. Disruption of either cytosolic pH or ATP availability/energy level uncouples this control network and the can macrophage shift away from production of inflammatory cytokines towards a programmed death event, which has the net effect of limiting inflammatory damage.

| MIC [1] [µg/mL] | MIC [4] [µM] | MIC ([6]; 24 hr) [µg/mL] | MIC ([6]; 48 hr) [µg/mL] | MIC [7] [µg/mL] | MIC50 ([8]; 24 h) [µg/mL] | MIC ([8]; 24 h) [µg/mL] | MIC50 ([8]; 48 h) [µg/mL] | MIC ([8]; 48 h) [µg/mL] | SMILES | MFC [1] [µg/mL] | viability at 0.4 µM [2] [%] | Viable cell percent change, Chronic/48-hour, Mean [3] [%] | viability at 0.4 µM [5] [%] | Doxorubicin 3.5 μM: percent cell survival [5] [%] | Oxaliplatin 100 μM: percent cell survival [5] [%] | Paclitaxel 50 μM: percent cell survival [5] [%] | Vincristine 100 nM: percent cell survival [5] [%] | MFC ([6]; 48 hr) [µg/mL] | MFC [7] [µg/mL] | MFC [8] [µg/mL] | further results |
| --- | --- | --- | --- | --- | --- | --- | --- | --- | --- | --- | --- | --- | --- | --- | --- | --- | --- | --- | --- | --- | --- |
| 0.25 to 8 (≈ 0.639 to 20.5 µM) | 6 (≈ 2.35 µg/mL) | 0.5 to 4 (≈ 1.28 to 10.2 µM) | 2 to 4 (≈ 5.12 to 10.2 µM) | 0.5 to 4 (≈ 1.28 to 10.2 µM) | 0.12 to 0.25 (≈ 0.307 to 0.639 µM) | 0.5 to 1 (≈ 1.28 to 2.56 µM) | 1 to 4 (≈ 2.56 to 10.2 µM) | 4 to 8 (≈ 10.2 to 20.5 µM) | CCCCCCOCCCCCCCCNc1ccnc2c(Cl)cccc12 [Compound AX, 8-Chloro-N-[8-(hexyloxy)octyl]quinolin-4-amine] | 2 to 8 (≈ 5.12 to 20.5 µM) | 31.2 | 18.20 | 31.2 | 57.9 | 49.5 | 26.7 | 31.5 | 4 to 32 (≈ 10.2 to 81.8 µM) | 4 to 8 (≈ 10.2 to 20.5 µM) | > 64 | MIC at 50% inhibition [7]: 0.12-2; cidal activity (MFC within 4 dilutions of the MIC), in words [7]: cidal against all 3 neoformans isolates; viability at 1 µM [9]: 24.3%; viability at 5 µM [9]: 18% |
| 0.25 to 4 (≈ 0.876 to 14 µM) | 6 (≈ 1.71 µg/mL) | 0.12 to 4 (≈ 0.42 to 14 µM) | 1 to 4 (≈ 3.5 to 14 µM) | 0.25 to 2 (≈ 0.876 to 7.01 µM) | < 0.12 | 0.25 to 0.5 (≈ 0.876 to 1.75 µM) | 0.25 to 1 (≈ 0.876 to 3.5 µM) | 0.25 to 4 (≈ 0.876 to 14 µM) | CCCCCCCCCCNc1ncnc2ccccc12 [Compound AH, N-(Decyl)quinazolin-4-amine] | 0.25 to 16 (≈ 0.876 to 56.1 µM) | – | – | – | – | – | – | – | 4 to 32 (≈ 14 to 112 µM) | 1 to 2 (≈ 3.5 to 7.01 µM) | > 64 | activity relative to AC in the LPS-triggered THP-1 cell death assay, in words [3]: more active than AC at the chronic/48-hour time point; MIC at 50% inhibition [7]: 0.004-2; cidal activity (MFC within 4 dilutions of the MIC), in words [7]: cidal against all 3 neoformans isolates; Reduction in viable THP-1 cell count (percent change) from 0 hours, Mean ± SE ([10]; Compound (0.1 μM), No LPS): −9.66 ± 1.34%; Reduction in viable THP-1 cell count (percent change) from 0 hours, Mean ± SE ([10]; Compound (0.1 μM), Plus LPS): −26.55 ± 0.95%; Reduction in viable THP-1 cell count (percent change) from 0 hours, Mean ± SE ([10]; Compound (1.0 μM), No LPS): −7.87 ± 0.98%; Reduction in viable THP-1 cell count (percent change) from 0 hours, Mean ± SE ([10]; Compound (1.0 μM), Plus LPS): −35.51 ± 3.90%; ability to inactivate pro-inflammatory THP-1 cells, in words (relative to benchmark AC) ([10]; LPS-treated THP-1 cells): higher activity than the active benchmark compound AC |
| 1 to 4 (≈ 2.6 to 10.4 µM) | 12 (≈ 4.62 µg/mL) | 2 to 4 (≈ 5.2 to 10.4 µM) | 2 to 4 (≈ 5.2 to 10.4 µM) | 2 (≈ 5.2 µM) | 2 (≈ 5.2 µM) | 2 (≈ 5.2 µM) | 2 to 4 (≈ 5.2 to 10.4 µM) | 4 (≈ 10.4 µM) | CCCCCCOCCCCCCCCCCNc1ccnc2ccccc12 [Compound AL, N-[10-(Hexyloxy)decyl]quinolin-4-amine] | 2 to 4 (≈ 5.2 to 10.4 µM) | 61.6 | 19.14 | 61.6 | 21.9 | 21.9 | 51.8 | 28.1 | 4 to 8 (≈ 10.4 to 20.8 µM) | 2 to 4 (≈ 5.2 to 10.4 µM) | 4 to 32 (≈ 10.4 to 83.2 µM) | activity relative to AC in the LPS-triggered THP-1 cell death assay, in words [3]: equivalent activity to AC at both the 5-hour and 48-hour time points; cidal activity (MFC within 4 dilutions of the MIC), in words ([8]; 3 strains): cidal against one of the A. fumigatus strains (MRL 28397); viability at 1 µM [9]: 16.6%; viability at 5 µM [9]: 18.3% |

From patent publication US20250034139A1, “AMINE COMPOUNDS HAVING ANTI-INFLAMMATORY, ANTIFUNGAL, ANTIPARASITIC, AND ANTICANCER ACTIVITY” (PHARMA CINQ, LLC, priority 2013, published 2025)
